According to the NIST ThermoML archive (doi:10.1021/je900938b):

Test: xn = mol fraction of the nth substance listed
Details: 101 kPa, Liquid; for mass density: Pycnometric method

OCC(O)CO [glycerol] + OCCO
Details | mass density [kg/m3] | viscosity [mPa·s]
298.15 K, x1 = 0.1001 | 1129.2 | 25.1
298.15 K, x1 = 0.2002 | 1147.2 | 37.4
298.15 K, x1 = 0.3001 | 1164 | 55
298.15 K, x1 = 0.4002 | 1180.2 | 82.8
298.15 K, x1 = 0.4991 | 1195 | 121.4
298.15 K, x1 = 0.6011 | 1209.4 | 184.2
298.15 K, x1 = 0.7015 | 1222.6 | 272.9
298.15 K, x1 = 0.7981 | 1234.5 | 405.9
298.15 K, x1 = 0.8961 | 1246.1 | 611.8
298.15 K, x1 = 1 | 1257.8 | 943.8
303.15 K, x1 = 0.1001 | 1126.3 | 20.7
303.15 K, x1 = 0.2002 | 1144.4 | 30.3
303.15 K, x1 = 0.3001 | 1161.2 | 43.1
303.15 K, x1 = 0.4002 | 1177.3 | 64.2
303.15 K, x1 = 0.4991 | 1192.2 | 91.4
303.15 K, x1 = 0.6011 | 1206.7 | 134
303.15 K, x1 = 0.7015 | 1219.7 | 195
303.15 K, x1 = 0.7981 | 1231.5 | 285.9
303.15 K, x1 = 0.8961 | 1243.2 | 422.7
303.15 K, x1 = 1 | 1254.7 | 628.9
308.15 K, x1 = 0.1001 | 1122.9 | 17
308.15 K, x1 = 0.2002 | 1141.2 | 24.1
308.15 K, x1 = 0.3001 | 1158.2 | 33.9
308.15 K, x1 = 0.4002 | 1174.5 | 48.5
308.15 K, x1 = 0.4991 | 1189.5 | 69.4
308.15 K, x1 = 0.6011 | 1204 | 100.2
308.15 K, x1 = 0.7015 | 1217 | 142.4
308.15 K, x1 = 0.7981 | 1229.1 | 206.2
308.15 K, x1 = 0.8961 | 1240.7 | 299.9
308.15 K, x1 = 1 | 1252.2 | 431.9
313.15 K, x1 = 0.1001 | 1119.9 | 14
313.15 K, x1 = 0.2002 | 1138.2 | 19.6
313.15 K, x1 = 0.3001 | 1155.2 | 27
313.15 K, x1 = 0.4002 | 1171.6 | 38.2
313.15 K, x1 = 0.4991 | 1186.7 | 52.6
313.15 K, x1 = 0.6011 | 1201.3 | 75.2
313.15 K, x1 = 0.7015 | 1214.3 | 107
313.15 K, x1 = 0.7981 | 1226.5 | 145.2
313.15 K, x1 = 0.8961 | 1238 | 204.6
313.15 K, x1 = 1 | 1249.4 | 295.9
318.15 K, x1 = 0.1001 | 1116.3 | 11.7
318.15 K, x1 = 0.2002 | 1134.7 | 16.1
318.15 K, x1 = 0.3001 | 1151.8 | 21.7
318.15 K, x1 = 0.4002 | 1168.2 | 30.6
318.15 K, x1 = 0.4991 | 1183.3 | 41.1
318.15 K, x1 = 0.6011 | 1197.8 | 57.3
318.15 K, x1 = 0.7015 | 1210.9 | 81
318.15 K, x1 = 0.7981 | 1223.1 | 108.2
318.15 K, x1 = 0.8961 | 1234.7 | 148.4
318.15 K, x1 = 1 | 1245.8 | 185.8
323.15 K, x1 = 0.1001 | 1113.4 | 9.65
323.15 K, x1 = 0.2002 | 1131.8 | 13.1
323.15 K, x1 = 0.3001 | 1148.7 | 17.9
323.15 K, x1 = 0.4002 | 1165.2 | 24.4
323.15 K, x1 = 0.4991 | 1180.1 | 33.6
323.15 K, x1 = 0.6011 | 1194.6 | 45.3
323.15 K, x1 = 0.7015 | 1207.9 | 62
323.15 K, x1 = 0.7981 | 1219.9 | 82.4
323.15 K, x1 = 0.8961 | 1231.2 | 111
323.15 K, x1 = 1 | 1242.3 | 151.2
328.15 K, x1 = 0.1001 | 1109.4 | 8.31
328.15 K, x1 = 0.2002 | 1128 | 11
328.15 K, x1 = 0.3001 | 1145.1 | 14.6
328.15 K, x1 = 0.4002 | 1161.7 | 20.1
328.15 K, x1 = 0.4991 | 1176.7 | 26.5
328.15 K, x1 = 0.6011 | 1191.4 | 36
328.15 K, x1 = 0.7015 | 1204.7 | 48.1
328.15 K, x1 = 0.7981 | 1216.9 | 64.4
328.15 K, x1 = 0.8961 | 1228.3 | 84.6
328.15 K, x1 = 1 | 1239.3 | 108.4
333.15 K, x1 = 0.1001 | 1106 | 7.06
333.15 K, x1 = 0.2002 | 1124.6 | 9.17
333.15 K, x1 = 0.3001 | 1141.8 | 12.4
333.15 K, x1 = 0.4002 | 1158.4 | 16.4
333.15 K, x1 = 0.4991 | 1173.5 | 21.5
333.15 K, x1 = 0.6011 | 1188.2 | 28.4
333.15 K, x1 = 0.7015 | 1201.5 | 37.6
333.15 K, x1 = 0.7981 | 1213.8 | 49.4
333.15 K, x1 = 0.8961 | 1225.3 | 66.2
333.15 K, x1 = 1 | 1236.1 | 84.8
338.15 K, x1 = 0.1001 | 1102.8 | 6.1
338.15 K, x1 = 0.2002 | 1121.4 | 7.81
338.15 K, x1 = 0.3001 | 1138.6 | 10.5
338.15 K, x1 = 0.4002 | 1155.1 | 13.8
338.15 K, x1 = 0.4991 | 1170.2 | 18.1
338.15 K, x1 = 0.6011 | 1185 | 23.5
338.15 K, x1 = 0.7015 | 1198.3 | 30.7
338.15 K, x1 = 0.7981 | 1210.6 | 39.5
338.15 K, x1 = 0.8961 | 1222.2 | 50.9
338.15 K, x1 = 1 | 1232.8 | 62.2
